Test results from ChEMBL document CHEMBL6096675 (J Med Chem, 2025).
One block for each molecule: values may come before it. The source made the active and inactive calls. The rule behind the calls is not given here.

Legend:
[1] = biological target: von Hippel-Lindau disease tumor suppressor (Homo sapiens, UniProt P40337); assay: Inhibition of VHL (unknown origin)
[2] = biological target: T1, von Hippel-Lindau disease tumor suppressor/SWI/SNF-related matrix-associated actin-dependent regulator of chromatin subfamily A member 4 (Homo sapiens, UniProt P51532+P40337); assay: PROTAC activity at SMARCA4/VHL1 in human HeLa cells assessed as protein degradation by Nano-Glo HiBiT lytic detection assay; type: cell-based
[3] = Plasma concentration in SCID mouse xenografted with human NCI-H838 cells at 10 mg/kg, iv measured after 24 hrs by LC-MS/MS analysis; type: ADME, organism-based
[4] = Drug uptake in tumor of human NCI-H838 cells xenografted SCID mouse model at 10 mg/kg, iv measured after 24 hrs by LC-MS/MS analysis; type: ADME, organism-based, Neoplasm; conditions: read-out: Drug uptake
[5] = biological target: von Hippel-Lindau disease tumor suppressor/SWI/SNF-related matrix-associated actin-dependent regulator of chromatin subfamily A member 2 (Homo sapiens, UniProt P51531+P40337); assay: PROTAC activity at SMARCA2/VHL1 in human HeLa cells assessed as protein degradation by Nano-Glo HiBiT lytic detection assay; type: cell-based
[6] = Drug uptake in tumor of human NCI-H838 cells xenografted SCID mouse model at 10 mg/kg, iv measured after 96 hrs by LC-MS/MS analysis; type: ADME, organism-based, Neoplasm; conditions: read-out: Drug uptake
[7] = Plasma concentration in SCID mouse xenografted with human NCI-H838 cells at 10 mg/kg, iv measured after 96 hrs by LC-MS/MS analysis; type: ADME, organism-based
[8] = biological target: SWI/SNF-related matrix-associated actin-dependent regulator of chromatin subfamily A member 4 (Homo sapiens, UniProt P51532); assay: Inhibition of SMARCA4 (unknown origin)
[9] = biological target: SWI/SNF-related matrix-associated actin-dependent regulator of chromatin subfamily A member 2 (Homo sapiens, UniProt P51531); assay: Inhibition of SMARCA2 (unknown origin)
[10] = species on record: Homo sapiens; assay: PROTAC activity at SMARCA2/E3 ubiquitin ligase (unknown origin) assessed as maximal protein degradation
[11] = PROTAC activity at SMARCA2/E3 ubiquitin ligase (unknown origin) assessed as protein degradation; design: species or system Homo sapiens
[12] = species on record: Homo sapiens; assay: Selectivity ratio, ratio of DC50 for PROTAC activity at SMARCA2/E3 ubiquitin ligase (unknown origin) to DC50 for PROTAC activity at SMARCA4/E3 ubiquitin ligase (unknown origin
[13] = species on record: Homo sapiens; assay: PROTAC activity at SMARCA4/E3 ubiquitin ligase (unknown origin) assessed as maximal protein degradation
[14] = PROTAC activity at SMARCA4/E3 ubiquitin ligase (unknown origin) assessed as protein degradation; design: species or system Homo sapiens
[15] = Drug uptake in tumor of human NCI-H838 cells xenografted SCID mouse model at 10 mg/kg, iv measured after 48 hrs by LC-MS/MS analysis; type: ADME, organism-based, Neoplasm; conditions: read-out: Drug uptake
[16] = Plasma concentration in SCID mouse xenografted with human NCI-H838 cells at 10 mg/kg, iv measured after 48 hrs by LC-MS/MS analysis; type: ADME, organism-based
[17] = Plasma concentration in SCID mouse xenografted with human NCI-H838 cells at 10 mg/kg, iv measured after 168 hrs by LC-MS/MS analysis; type: ADME, organism-based; conditions: SCID, plasma
[18] = Drug uptake in tumor of human NCI-H838 cells xenografted SCID mouse model at 10 mg/kg, iv measured after 168 hrs by LC-MS/MS analysis; type: ADME, organism-based, Neoplasm; conditions: read-out: Drug uptake
[19] = test system: NCI-H1792; assay: Antiproliferative activity against human SMARCA4-wild type NCI-H1792 cells assessed as inhibition of cell growth measured after 7 days by WST-8 assay; type: functional; conditions: NCI-H1792, 168 h, time 7 day
[20] = test system: NCI-H1792; assay: Antiproliferative activity against human SMARCA4-wild type NCI-H1792 cells assessed as maximal inhibition of cell growth measured after 7 days by WST-8 assay relative to control; type: functional; conditions: time 7 day
[21] = Antiproliferative activity against human SMARCA4-deficient NCI-H1568 cells assessed as maximal inhibition of cell growth measured after 7 days by WST-8 assay relative to control; type: functional; conditions: time 7 day
[22] = Antiproliferative activity against human SMARCA4-deficient NCI-H1693 cells assessed as maximal inhibition of cell growth measured after 7 days by WST-8 assay relative to control; type: functional; conditions: time 7 day
[23] = Antiproliferative activity against human SMARCA4-deficient NCI-H838 cells assessed as maximal inhibition of cell growth measured after 7 days by WST-8 assay relative to control; type: functional; conditions: time 7 day
[24] = test system: NCI-H838; assay: In vivo anti-tumor activity against SMARCA4-deficient human NCI-H838 cells xenografted in SCID mouse assessed as assessed as inhibition of tumor growth at 10 to 30 mg/kg, iv weekly once; type: functional, organism-based; conditions: dose 10-30 mg/kg
[25] = Antiproliferative activity against human SMARCA4-deficient NCI-H1944 cells assessed as inhibition of cell growth measured after 7 days by WST-8 assay; type: functional; conditions: NCI-H1944, 168 h, time 7 day
[26] = Antiproliferative activity against human SMARCA4-deficient NCI-H1568 cells assessed as inhibition of cell growth measured after 7 days by WST-8 assay; type: functional; conditions: NCI-H1568, 168 h, time 7 day
[27] = Antiproliferative activity against human SMARCA4-deficient NCI-H838 cells assessed as inhibition of cell growth measured after 7 days by WST-8 assay; type: functional; conditions: NCI-H838, 168 h, time 7 day
[28] = test system: SK-MEL-28; assay: Antiproliferative activity against human SMARCA4-wild type SK-MEL-28 cells assessed as maximal inhibition of cell growth measured after 7 days by WST-8 assay relative to control; type: functional; conditions: time 7 day
[29] = Antiproliferative activity against human […] NCI-H1975 cells assessed as inhibition of cell growth measured after 7 days by WST-8 assay; type: functional; conditions: NCI-H1975, 168 h, time 7 day
[30] = Antiproliferative activity against human SMARCA4-deficient NCI-H1944 cells assessed as maximal inhibition of cell growth measured after 7 days by WST-8 assay relative to control; type: functional; conditions: time 7 day
[31] = test system: SK-MEL-5; assay: Antiproliferative activity against human SMARCA4-deficient SK-MEL-5 cells assessed as inhibition of cell growth measured after 7 days by WST-8 assay; type: functional; conditions: SK-MEL-5, 168 h, time 7 day
[32] = test system: SK-MEL-28; assay: Antiproliferative activity against human SMARCA4-wild type SK-MEL-28 cells assessed as inhibition of cell growth measured after 7 days by WST-8 assay; type: functional; conditions: SK-MEL-28, 168 h, time 7 day
[33] = Antiproliferative activity against human SMARCA4-deficient NCI-H1693 cells assessed as inhibition of cell growth measured after 7 days by WST-8 assay; type: functional; conditions: NCI-H1693, 168 h, time 7 day
[34] = Antiproliferative activity against human […] NCI-H1975 cells assessed as maximal inhibition of cell growth measured after 7 days by WST-8 assay relative to control; type: functional; conditions: time 7 day
[35] = biological target: T1, von Hippel-Lindau disease tumor suppressor/SWI/SNF-related matrix-associated actin-dependent regulator of chromatin subfamily A member 4; assay: PROTAC activity at SMARCA4/VHL1 in human HeLa cells assessed as protein degradation after 2 hrs by Nano-Glo HiBiT lytic detection assay; type: cell-based

Sequence of von Hippel-Lindau disease tumor suppressor/SWI/SNF-related matrix-associated actin-dependent regulator of chromatin subfamily A member 2 (P51531 whole entry): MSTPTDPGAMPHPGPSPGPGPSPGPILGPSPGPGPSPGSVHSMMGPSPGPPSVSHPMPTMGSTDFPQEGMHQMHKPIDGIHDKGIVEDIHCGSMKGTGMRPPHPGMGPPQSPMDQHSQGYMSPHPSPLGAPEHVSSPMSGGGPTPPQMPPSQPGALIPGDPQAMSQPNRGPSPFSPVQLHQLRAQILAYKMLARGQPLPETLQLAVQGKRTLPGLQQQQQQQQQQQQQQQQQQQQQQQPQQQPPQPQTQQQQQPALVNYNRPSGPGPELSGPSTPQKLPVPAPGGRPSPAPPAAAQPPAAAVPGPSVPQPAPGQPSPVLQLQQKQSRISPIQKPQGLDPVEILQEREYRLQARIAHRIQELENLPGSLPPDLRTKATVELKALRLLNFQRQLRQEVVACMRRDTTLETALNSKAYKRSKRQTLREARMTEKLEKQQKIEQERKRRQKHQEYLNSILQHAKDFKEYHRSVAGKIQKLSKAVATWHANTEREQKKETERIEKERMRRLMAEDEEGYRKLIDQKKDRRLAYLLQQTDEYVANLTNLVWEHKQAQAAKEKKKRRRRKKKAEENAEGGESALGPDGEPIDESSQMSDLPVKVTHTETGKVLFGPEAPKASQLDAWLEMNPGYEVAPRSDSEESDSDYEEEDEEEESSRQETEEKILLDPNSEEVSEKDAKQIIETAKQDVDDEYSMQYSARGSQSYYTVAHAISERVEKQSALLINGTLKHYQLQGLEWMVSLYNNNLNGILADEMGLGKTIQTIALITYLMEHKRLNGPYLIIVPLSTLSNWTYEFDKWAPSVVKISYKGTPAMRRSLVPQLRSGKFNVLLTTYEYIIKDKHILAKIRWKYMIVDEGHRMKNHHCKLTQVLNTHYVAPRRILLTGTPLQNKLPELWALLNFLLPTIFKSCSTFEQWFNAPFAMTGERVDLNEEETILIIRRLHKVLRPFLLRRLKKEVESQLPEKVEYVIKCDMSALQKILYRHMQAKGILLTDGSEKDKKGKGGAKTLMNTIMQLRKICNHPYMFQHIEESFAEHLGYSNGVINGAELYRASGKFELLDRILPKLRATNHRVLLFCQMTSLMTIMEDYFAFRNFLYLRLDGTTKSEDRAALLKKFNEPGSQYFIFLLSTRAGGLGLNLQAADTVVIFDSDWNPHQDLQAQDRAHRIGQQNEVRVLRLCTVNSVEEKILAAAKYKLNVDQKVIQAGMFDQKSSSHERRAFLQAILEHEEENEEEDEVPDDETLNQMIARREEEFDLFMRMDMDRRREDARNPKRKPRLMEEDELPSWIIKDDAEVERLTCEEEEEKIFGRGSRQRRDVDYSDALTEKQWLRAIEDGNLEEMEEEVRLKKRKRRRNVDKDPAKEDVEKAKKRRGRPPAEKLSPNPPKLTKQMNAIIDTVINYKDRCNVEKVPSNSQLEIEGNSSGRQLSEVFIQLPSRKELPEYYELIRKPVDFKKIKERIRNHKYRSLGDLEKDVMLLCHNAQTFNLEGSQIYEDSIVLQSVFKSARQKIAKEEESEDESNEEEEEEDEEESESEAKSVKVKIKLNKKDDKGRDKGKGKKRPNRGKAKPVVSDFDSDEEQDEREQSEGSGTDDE
Sequence of von Hippel-Lindau disease tumor suppressor/SWI/SNF-related matrix-associated actin-dependent regulator of chromatin subfamily A member 2 (P40337 whole entry): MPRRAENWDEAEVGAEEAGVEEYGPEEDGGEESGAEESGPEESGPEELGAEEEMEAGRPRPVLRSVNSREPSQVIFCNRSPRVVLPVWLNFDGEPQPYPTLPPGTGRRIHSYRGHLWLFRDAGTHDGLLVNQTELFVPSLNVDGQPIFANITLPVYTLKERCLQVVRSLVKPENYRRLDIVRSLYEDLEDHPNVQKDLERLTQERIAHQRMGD
T1 sequence (P51532 whole entry): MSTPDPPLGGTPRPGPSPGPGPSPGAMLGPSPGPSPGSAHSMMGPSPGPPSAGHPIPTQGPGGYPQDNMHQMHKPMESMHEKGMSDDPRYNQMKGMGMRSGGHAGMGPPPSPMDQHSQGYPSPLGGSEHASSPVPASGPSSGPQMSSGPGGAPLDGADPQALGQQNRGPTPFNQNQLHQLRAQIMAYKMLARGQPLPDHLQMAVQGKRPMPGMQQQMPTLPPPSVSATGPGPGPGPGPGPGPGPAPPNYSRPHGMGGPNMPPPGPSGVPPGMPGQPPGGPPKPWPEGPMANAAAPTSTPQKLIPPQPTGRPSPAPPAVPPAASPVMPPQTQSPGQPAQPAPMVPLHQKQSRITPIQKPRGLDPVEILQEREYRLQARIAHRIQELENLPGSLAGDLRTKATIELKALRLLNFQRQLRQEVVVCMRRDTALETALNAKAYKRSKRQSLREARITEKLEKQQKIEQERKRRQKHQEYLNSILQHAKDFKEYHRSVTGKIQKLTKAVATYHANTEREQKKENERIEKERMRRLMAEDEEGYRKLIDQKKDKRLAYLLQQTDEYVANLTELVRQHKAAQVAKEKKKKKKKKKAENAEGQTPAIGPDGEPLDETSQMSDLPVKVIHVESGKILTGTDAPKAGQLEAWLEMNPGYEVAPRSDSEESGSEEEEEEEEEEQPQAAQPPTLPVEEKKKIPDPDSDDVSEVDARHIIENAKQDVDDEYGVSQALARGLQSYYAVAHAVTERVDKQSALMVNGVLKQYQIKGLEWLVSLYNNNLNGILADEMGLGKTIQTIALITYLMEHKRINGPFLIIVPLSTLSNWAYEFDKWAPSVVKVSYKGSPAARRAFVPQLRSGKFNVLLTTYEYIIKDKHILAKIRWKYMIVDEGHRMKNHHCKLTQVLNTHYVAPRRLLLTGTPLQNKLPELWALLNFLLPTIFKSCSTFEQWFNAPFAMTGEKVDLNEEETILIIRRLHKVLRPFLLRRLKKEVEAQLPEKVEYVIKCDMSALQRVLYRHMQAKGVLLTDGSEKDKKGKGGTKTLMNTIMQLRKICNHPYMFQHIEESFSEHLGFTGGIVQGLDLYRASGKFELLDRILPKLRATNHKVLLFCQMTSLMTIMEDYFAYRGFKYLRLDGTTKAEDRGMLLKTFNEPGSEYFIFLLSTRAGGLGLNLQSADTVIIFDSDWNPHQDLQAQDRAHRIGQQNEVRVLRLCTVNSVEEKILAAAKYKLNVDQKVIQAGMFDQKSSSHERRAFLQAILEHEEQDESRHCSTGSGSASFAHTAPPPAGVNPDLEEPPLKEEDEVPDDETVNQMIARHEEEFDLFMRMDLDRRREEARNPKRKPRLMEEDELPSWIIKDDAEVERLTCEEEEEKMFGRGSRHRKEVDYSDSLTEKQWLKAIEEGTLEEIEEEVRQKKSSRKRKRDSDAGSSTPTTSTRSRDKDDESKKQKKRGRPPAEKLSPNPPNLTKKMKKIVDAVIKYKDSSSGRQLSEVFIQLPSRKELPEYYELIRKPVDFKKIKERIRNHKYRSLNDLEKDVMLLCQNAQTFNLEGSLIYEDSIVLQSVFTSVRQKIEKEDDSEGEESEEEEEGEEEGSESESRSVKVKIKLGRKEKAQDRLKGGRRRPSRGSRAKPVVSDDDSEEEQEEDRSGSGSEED
T1 sequence (P40337 whole entry): as the sequence (P40337 whole entry) above
Sequence of SWI/SNF-related matrix-associated actin-dependent regulator of chromatin subfamily A member 2 (P51531 whole entry): as the sequence (P51531 whole entry) above
Sequence of von Hippel-Lindau disease tumor suppressor (P40337 whole entry): as the sequence (P40337 whole entry) above
Sequence of SWI/SNF-related matrix-associated actin-dependent regulator of chromatin subfamily A member 4 (P51532 whole entry): as the sequence (P51532 whole entry) above

DC50 [2]: > 1000 nM
concentration at 24 h [3]: 5.5 ng/mL
concentration at 24 h [4]: 113 ng/mL
DC50 [5]: 0.4 nM
concentration at 96 h [6]: 53 ng/mL
concentration at 96 h [7]: 4.2 ng/mL
SMILES: COCCOCCOC[C@H](NC(=O)[C@@H]1C[C@@H](O)CN1C(=O)[C@@H](n1cc([C@H]2CC[C@H](CN3CCC(c4ccc5c(c4)-n4c(nc(=O)c6c(Cl)cccc64)C54CCCCC4)CC3)CC2)nn1)C(C)(C)C)c1ccc(-c2scnc2C)cc1

DC50 [2]: > 1000 nM
concentration at 24 h [3]: 13 ng/mL
concentration at 24 h [4]: 255 ng/mL
DC50 [5]: 0.4 nM
concentration at 96 h [6]: 79 ng/mL
concentration at 96 h [7]: 8.3 ng/mL
SMILES: COCCOC[C@H](NC(=O)[C@@H]1C[C@@H](O)CN1C(=O)[C@@H](n1cc([C@H]2CC[C@H](CN3CCC(c4ccc5c(c4)-n4c(nc(=O)c6c(Cl)cccc64)C54CCCCC4)CC3)CC2)nn1)C(C)(C)C)c1ccc(-c2scnc2C)cc1

Emax [10]: 81%
DC50 [11]: 1 nM
Ratio [12]: 32
Emax [13]: 67%
DC50 [14]: 32 nM
SMILES: Cc1ncsc1-c1ccc([C@H](CC[C@H](C)CCN2CCC(c3ccc4c(c3)n(C3CCCC3)c3nc(=O)c5c(Br)cccc5n43)CC2)NC(=O)[C@@H]2C[C@@H](O)CN2C(=O)[C@@H](NC(=O)C2(F)CC2)C(C)(C)C)cc1

concentration at 48 h [15]: 491 ng/mL
concentration at 48 h [16]: 30 ng/mL
DC50 [2]: > 1000 nM
concentration at 168 h [17]: 2.6 ng/mL
concentration at 168 h [18]: 65 ng/mL
DC50 [5]: 0.1 nM
SMILES: Cc1ncsc1-c1ccc([C@H](CN2CCOCC2)NC(=O)[C@@H]2C[C@@H](O)CN2C(=O)[C@H](C2CCOCC2)n2cc([C@H]3CC[C@H](CN4CCC(c5ccc6c(c5)-n5c(nc(=O)c7c(Cl)cccc75)C65CCCCC5)CC4)CC3)nn2)cc1

DC50 [35]: Not_active
SMILES: Cc1ncsc1-c1ccc([C@H](CN2CCOCC2)NC(=O)[C@@H]2C[C@H](O)CN2C(=O)[C@@H](n2cc([C@H]3CC[C@H](CN4CCC(c5ccc6c(c5)C5(CCCCC5)c5nc(=O)c7c(Cl)cccc7n5-6)CC4)CC3)nn2)C(C)(C)C)cc1

The next lines start with the molecule.

SMILES: Cc1ncsc1-c1ccc([C@H](C)NC(=O)[C@@H]2C[C@@H](O)CN2C(=O)[C@@H](n2cc(C3CC3)nn2)C(C)(C)C)cc1
IC50 [1]: 18.9 nM

SMILES: O=c1nc2n(c3cccc(Cl)c13)-c1cc(C3CCNCC3)ccc1C21CCCCC1
IC50 [8]: 83 nM
IC50 [9]: 66 nM

SMILES: O=c1nc2n(c3cccc(Cl)c13)-c1ccc(C3CCNCC3)cc1C21CCCCC1
IC50 [8]: 58 nM
IC50 [9]: 43 nM

SMILES: Cc1cn([C@H](C(=O)N2C[C@H](O)C[C@H]2C(=O)N[C@@H](C)c2ccc(-c3scnc3C)cc2)C(C)(C)C)nn1
IC50 [1]: 16.1 nM

SMILES: Cc1ncsc1-c1ccc(CNC(=O)[C@@H]2C[C@@H](O)CN2C(=O)[C@@H](NC(=O)C2(F)CC2)C(C)(C)C)c(OCCOc2ccc(CN3CCN(c4cc(-c5ccccc5O)nnc4N)CC3)cc2)c1
Emax [10]: > 95%
DC50 [11]: 6 nM
Ratio [12]: 2
Emax [13]: > 95%
DC50 [14]: 11 nM

SMILES: Cc1ncsc1-c1ccc([C@H](C)NC(=O)[C@@H]2C[C@@H](O)CN2C(=O)[C@@H](NC(=O)[C@H]2CC[C@H](CN3CC4(CCC(n5cc(-c6cc(-c7ccccc7O)nnc6N)cn5)CC4)C3)CC2)C(C)(C)C)cc1
GI50 [19]: > 10000 nM
Imax [20]: 25%
Imax [21]: 87%
Imax [22]: 81%
Imax [23]: 77%
Activity [24]: Active
GI50 [25]: 123 nM
GI50 [26]: 12 nM
GI50 [27]: 152 nM
Imax [28]: 15%
GI50 [29]: > 10000 nM
Imax [30]: 70%
GI50 [31]: 16 nM
GI50 [32]: > 10000 nM
GI50 [33]: 43 nM
Imax [34]: 40%
